{"source": "patent US20100137246A1", "about": "“Anti-inflammatory compositions and methods” (Searete LLC, a limited liability corporation of the State …, priority 2008, published 2010)", "origin": "cited, not measured here", "key": {"[1]": {"system": "lethal septic shock in mice"}, "[2]": {"conditions": "single agent, infused at 400 mg over one hour"}, "[3]": {"molecular_target": "Fyn (Homo sapiens, UniProt P06241)", "sequence (P06241 whole entry, species assumed)": "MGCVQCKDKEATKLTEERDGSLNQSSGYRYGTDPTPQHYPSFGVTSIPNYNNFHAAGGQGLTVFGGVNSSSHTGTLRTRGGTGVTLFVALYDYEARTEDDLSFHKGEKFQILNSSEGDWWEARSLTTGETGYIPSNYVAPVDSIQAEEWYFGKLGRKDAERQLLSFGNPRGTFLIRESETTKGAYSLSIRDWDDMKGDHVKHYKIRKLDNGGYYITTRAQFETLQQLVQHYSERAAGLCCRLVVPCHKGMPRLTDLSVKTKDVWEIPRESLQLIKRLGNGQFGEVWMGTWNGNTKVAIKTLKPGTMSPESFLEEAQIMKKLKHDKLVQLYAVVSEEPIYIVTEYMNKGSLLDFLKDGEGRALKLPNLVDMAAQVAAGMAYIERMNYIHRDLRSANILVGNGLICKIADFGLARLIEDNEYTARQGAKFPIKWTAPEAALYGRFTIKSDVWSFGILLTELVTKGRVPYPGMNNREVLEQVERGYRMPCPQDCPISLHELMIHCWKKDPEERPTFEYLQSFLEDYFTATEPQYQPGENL", "conditions": "at nanomolar concentrations"}, "[4]": {"system": "Src family kinase"}, "[5]": {"system": "proteasome", "conditions": "cultured breast cancer cells; through binding copper"}}, "data": [{"smiles": "Cl.Cl.Nc1ccccc1Oc1ccc2c(N)nsc2c1", "note": "[Example M62812, 3-amino-6-(2-aminophenoxy)-1,2-benzisothiazole dihydrochloride]", "values": [{"measurement": "prevention of lethal septic shock", "setting": "[1]", "value": "prevents lethal septic shock"}]}, {"smiles": "CCN(CC)CCCC(C)Nc1ccnc2cc(Cl)ccc12.O=P(O)(O)O.O=P(O)(O)O", "note": "(centres unmarked) [chloroquine phosphate, 7-chloro-4-[[4-(diethylamino)-1-methylbutyl]amino]quinoline phosphate (1:2)]", "values": [{"measurement": "tolerability of infusion", "setting": "[2]", "value": "without complication"}]}, {"smiles": "Cc1nc(Nc2ncc(C(=O)Nc3c(C)cccc3Cl)s2)cc(N2CCN(CCO)CC2)n1.O", "note": "[dasatinib, N-(2-chloro-6-methylphenyl)-2-[[6-[4-(2-hydroxyethyl)-1-piperazinyl]-2-methyl-4-pyrimidinyl]amino]-5-thiazolecarboxamide, monohydrate]", "values": [{"measurement": "inhibition of Fyn", "setting": "[3]", "value": "inhibits"}]}, {"smiles": "CCN(CC)CCCC(C)Nc1ccnc2cc(Cl)ccc12", "note": "(centres unmarked) [Chloroquine]", "values": [{"measurement": "inhibition of CpG-induced Src family kinase activation, or its dependent cellular responses", "setting": "[4]", "value": "does not inhibit"}]}, {"smiles": "CCN(CC)C(=S)SSC(=S)N(CC)CC", "note": "[disulfuram, 1-(diethylthiocarbamoyldisulfanyl)-N,N-diethyl-methanethioamide]", "values": [{"measurement": "proteasomal activity", "setting": "[5]", "value": "inhibits proteasomal activity"}]}]}
